Measured values as given in BindingDB's records for PubMed 10454469 (Universidad De Sevilla, 1999).
pKi: −log10 of the molar value. Values joined by “and” are separate entries in the source; they are usually repeats but may differ in a detail not shown here. Identical values can stand only once.

Target: Gamma-aminobutyric acid receptor subunit alpha-1 (Rattus norvegicus, UniProt P62813)
Sequence (P62813 whole entry): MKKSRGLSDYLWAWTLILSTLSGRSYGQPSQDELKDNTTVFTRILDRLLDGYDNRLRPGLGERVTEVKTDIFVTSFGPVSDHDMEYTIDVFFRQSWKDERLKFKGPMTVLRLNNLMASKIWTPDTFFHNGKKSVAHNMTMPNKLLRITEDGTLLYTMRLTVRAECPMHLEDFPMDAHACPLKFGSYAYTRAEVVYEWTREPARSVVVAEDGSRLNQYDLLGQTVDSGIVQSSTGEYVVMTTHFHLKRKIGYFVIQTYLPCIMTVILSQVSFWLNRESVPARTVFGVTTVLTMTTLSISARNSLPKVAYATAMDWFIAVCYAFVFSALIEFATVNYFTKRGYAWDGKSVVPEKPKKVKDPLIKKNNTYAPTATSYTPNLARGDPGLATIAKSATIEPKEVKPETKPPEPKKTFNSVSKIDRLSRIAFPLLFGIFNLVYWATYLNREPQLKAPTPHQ

Compound: Cc1nnc2ccc(-c3cccc(C(F)(F)F)c3)nn12
- pKi: 9.15 and 9.09
